{"source": "patent US12465614B2", "about": "“Budesonide 21-phosphate salts and pharmaceutical compositions containing the same” (GENETIC S.P.A., priority 2020, dated 2025)", "format_in_all_cases": "in vivo", "key": {"[1]": {"system": "mice with OVA-induced allergic asthma", "experiment": "Lung hyperreactivity/Penh function, intra-nasal Bud vs Bud-21 P (Experimental Groups III)", "conditions": "for Penh maximal response (Emax) / area under the Penh-metacholine concentration curve (AUC): 4 weeks", "protocol": "Male Balb/c SPF mice (25*2 g, 6-week-old) were purchased from the animal house facilities at the São Paulo School of Medicine (Federal University of São Paulo, Brazil). They were group-housed in a temperature-controlled room at 22° C. with a 12/12-hour light/dark cycle and allowed free access to food and water. The study is in agreement with the Ethical Principles for Animal Research established by the Brazilian College for Animal Experimentation (COBEA). According to the internal laboratory rules, euthanasia is performed if severe distress related to the test agents developed during the experiment. In Protocol 3, the test compounds budesonide (Bud; MW: 430.53 g/mol) and budesonide 21-phosphate free acid (Bud-21 P; […] The compounds were dissolved in 10% sterile saline+90% DMSO (Sigma Chemical Co., St. Louis, MO) at the correspondent concentrations at which the above mentioned doses per animal result from the intra-nasal (i.n.) administration of 10 μl/animal (5 μl/nostril) of each of the solutions. Mice were sensitized with two subcutaneous injections of 0.4 ml of OVA/Al(OH)3, with an interval of 7 days (Sham animals received the Al(OH)3 suspension in PBS with no OVA). Seven days after the second sensitization (i.e., 3rd week), the animals were nebulized twice a week with the 1% OVA solution (Sham and untreated OVA groups were nebulized with PBS) during 20 minutes for the next 2 weeks. Sixty minutes before the challenges (OVA nebulization) and daily during the next 4 weeks, mice were intra-nasally treated (10 μl/animal as 5 μl/nostril) with the respective compounds/vehicle. Airway responsiveness in conscious, spontaneously breathing animals was measured at the end of the 4th week (i.e., after 2 weeks of OVA challenges+treatments), 24 h after the last OVA/PBS challenge via whole body plethysmography (Buxco Europe Ltd, Winchester, UK), as previously described. Experiments were carried out in a quiet room by an investigator who was unaware of the nature of treatments. Aerosolized saline (50 μl/mouse during 60 s) and then the muscarinic agonist metacholine (MCh) at increasing concentrations (3.12, 6.25, 12.5 and 25.0 mg/ml in PBS) was nebulized through an inlet of the main chamber for 3 min each to induce bronchoconstriction and readings were taken and averaged for 6 min following each nebulization. After 20 min, the baseline values usually returned at the end of this period. Enhanced pause (Penh) was measured as an indicator of bronchoconstriction and consequent increase of airway resistances: Penh=[(expiration time/relaxation time)−1][…](maximum expiration flow/maximum inspiration flow)"}, "IgE": {"system": "IgE", "experiment": "Plasma IgE levels in OVA-sensitized mice, ELISA (Experimental Groups I)", "conditions": "1 mg/Kg i.p.; vs OVA group; FIG. 10 panel C", "protocol": "Female Balb/c (8-week-old, Charles River, Calco, Italy) were housed in the animal care facility of the Department of Pharmacy of the University of Naples, Italy in a controlled environment (temperature 21±2° C. and humidity 60±10%) and provided with standard rodent chow and water. All animals were allowed to acclimate for four days prior to experiments and were subjected to 12 h light−12 h dark schedule. Experiments were conducted during the light phase. The experimental procedures were approved by the Italian Ministry according to International and National law and policies (EU Directive 2010/63/EU and Italian DL 26/2014 for animal experiments). […] The compounds were dissolved in DMSO (Sigma Chemical Co., St. Louis, MO) at concentrations at which the determined dose per animal results from the intraperitoneal administration of 100 μl of solution (1:10 DMSO) and intra-nasal (i.n.) administration of 10 μl/animal (5 μl/nostril) of the solutions. […] Plasma levels of IgE were measured as index of sensitization. […] Total IgE levels were measured by means of ELISA using matched antibody pairs (BD Biosciences Pharmingen San Jose, CA)."}, "OVA-sensitized mice": {"system": "OVA-sensitized mice", "conditions": "1 mg/Kg i.p. before each OVA exposure; female Balb/c; vs OVA group; FIG. 10A"}, "[2]": {"system": "mice with OVA-induced allergic asthma", "experiment": "Circulating leukocyte cell counts (Experimental Groups II)", "conditions": "i.n.; FB all tested doses (0.3, 1.0, 3.0 nmol/animal); B and F 3 nmol/animal", "protocol": "Male Balb/c SPF mice (25*2 g, 6-week-old) were purchased from the animal house facilities at the São Paulo School of Medicine (Federal University of São Paulo, Brazil). They were group-housed in a temperature-controlled room at 22° C. with a 12/12-hour light/dark cycle and allowed free access to food and water. The study is in agreement with the Ethical Principles for Animal Research established by the Brazilian College for Animal Experimentation (COBEA). According to the internal laboratory rules, euthanasia is performed if severe distress related to the test agents developed during the experiment. […] The compounds were dissolved in DMSO (Sigma Chemical Co., St. Louis, MO) at concentrations at which the determined dose per animal results from the intraperitoneal administration of 100 μl of solution (1:10 DMSO) and intra-nasal (i.n.) administration of 10 μl/animal (5 μl/nostril) of the solutions. Mice were sensitized with two subcutaneous injections of 0.4 ml of OVA/Al(OH)3, with an interval of 7 days (Sham animals received the Al(OH)3 suspension in PBS with no OVA). Seven days after the second sensitization (i.e., 3rd week), the animals were nebulized twice a week with the 1% OVA solution (Sham and untreated OVA groups were nebulized with PBS) during 20 minutes for the next 2 weeks. Sixty minutes before the challenges (OVA nebulization) and daily during the next 4 weeks, mice were intra-nasally treated (10 μl/animal as 5 μl/nostril) with the respective compounds/vehicle. After Penh evaluation, the mice were anesthetized with inhaled isofluorane (5% v/v in O2) and blood samples were collected from the descending abdominal aorta. The mice were then euthanized by exsanguination (blood samples were collected from each animal for leukocyte cell counting), and bronchoalveolar lavage (BAL) was performed by exposing and cannulating the trachea with a polyethylene tube (1 mm outer diameter) connected to a syringe. The lungs were washed by flushing 300 μL of heparin-containing PBS solution (20 Ul/mL). The retrieved BAL lavage aliquots were obtained, and the same procedure was repeated four additional times. The samples were submitted to centrifugation (1000 g for 10 min) and the cell pellet was resuspended in 200 μL of PBS solution. Total cell counts were determined using a Neubauer chamber, and differential counting was carried out in cytospin (Fanem Mod 2400; São Paulo, Brazil) preparations stained with May-Grünwald dye. Leukocytes were classified based on normal morphological criteria."}, "[3]": {"conditions": "highest dose 30 nmol/animal/day i.n."}, "[4]": {"conditions": "all tested doses (3, 10 and 30 nmol/animal/day) i.n."}}, "note": "Entries after “also recorded” stand apart in the source; their conditions may differ.", "data": [{"smiles": "CCCC1OC2CC3C4CCC5=CC(=O)C=CC5(C)C4C(O)CC3(C)C2(C(=O)CO)O1", "note": "(stereo not drawn) [Bud, 11β,21-dihydroxy-16α,17α-(butylidenebis(oxy))pregna-1,4-diene-3.20-dione]", "values": [{"measurement": "beneficial effect on bronchoconstriction response to methacholine (Penh function)", "setting": "[1]; 3 and 10 nmol/animal/day i.n.", "value": "absent"}, {"measurement": "Penh maximal response (Emax)", "setting": "[1]; [3]", "value": "significant reduction of this response just at the highest dose"}, {"measurement": "area under the Penh-metacholine concentration curve (AUC)", "setting": "[1]; [3]", "value": "significant reduction of this response just at the highest dose"}]}, {"smiles": "CCCC1OC2CC3C4CCC5=CC(=O)C=CC5(C)C4C(O)CC3(C)C2(C(=O)COP(=O)(O)O)O1", "note": "(centres unmarked) [B, Budesonide 21-phosphate]", "values": [{"measurement": "OVA induced increase of IgE plasma levels", "setting": "IgE", "value": "significantly reduced OVA induced increase of IgE plasma levels"}, {"measurement": "Penh maximal response (Emax)", "setting": "[1]; [4]", "value": "significantly reduced"}, {"measurement": "area under the Penh-metacholine concentration curve (AUC)", "setting": "[1]; [4]", "value": "significantly reduced"}, {"measurement": "bronchial hyperreactivity (increased response of isolated bronchi to carbachol)", "setting": "OVA-sensitized mice", "value": "did not significantly affect the increased response of carbachol"}, {"measurement": "circulating macrophages", "setting": "[2]", "value": "significantly reduced the number of macrophages; also recorded: mild decrease of circulating macrophages"}]}]}
